The text below walks through data of patent US20240228504A1, “SUBSTITUTED TRICYCLIC AMIDES, ANALOGUES THEREOF, AND METHODS USING SAME” (Arbutus Biopharma Corporation, priority 2020, published 2024).

The pEC50 is the negative decadic logarithm of the EC50, by convention in mol/L.

pEC50: −log10 of the molar value.

For the assay, the system named is HBV rcDNA in HepDE19 cells. The experiment in a line: HepDE19 assay with bDNA quantitation of HBV rcDNA. Type of assay: cell-based, hepatitis B virus. To be noted: Hepatitis B virus, HepDE19, HepDE19 assay, inhibition of rcDNA formation, bDNA quantitation; read-out: DE-19bDNA EC50.
In the case of `CN(C(=O)c1cc(-c2ccc(F)cc2)no1)[C@@H]1COCc2[nH]c(=O)c3cc(F)c(F)cc3c21` [Compound 236, (S)-N-(8,9-Difluoro-6-oxo-1,4,5,6-tetrahydro-2H-pyrano[3,4-c]isoquinolin-1-yl)-3-(4-fluorophenyl)-N-methylisoxazole-5-carboxamide], the pEC50 is 4.82. With `CN(C(=O)c1ccc(Oc2cccc(F)c2)cc1)[C@@H]1COCc2[nH]c(=O)c3cc(F)c(F)cc3c21` [Compound 237, (S)-N-(8,9-Difluoro-6-oxo-1,4,5,6-tetrahydro-2H-pyrano[3,4-c]isoquinolin-1-yl)-4-(3-fluorophenoxy)-N-methylbenzamide], the pEC50 is 5.16. Next, `CN(C(=O)c1cc2cc(F)c(F)cc2[nH]1)[C@@H]1COCc2c1c1cc(F)c(F)cc1c(=O)n2C` [Compound 240, (S)-N-(8,9-Difluoro-5-methyl-6-oxo-1,4,5,6-tetrahydro-2H-pyrano[3,4-c]isoquinolin-1-yl)-5,6-difluoro-N-methyl-1H-indole-2-carboxamide]: 8.00.

In the case of `COc1nc2c(c3cc(F)c(F)cc13)[C@H](N(C)C(=O)c1cc3cc(F)c(F)cc3[nH]1)COC2` [Compound 241, (S)-N-(8,9-Difluoro-6-methoxy-1,4-dihydro-2H-pyrano[3,4-c]isoquinolin-1-yl)-5,6-difluoro-N-methyl-1H-indole-2-carboxamide], the pEC50 was 7.52. Next, `CN(C(=O)c1cc2n(c1)CCCC2)[C@@H]1COCc2[nH]c(=O)c3cc(F)c(F)cc3c21` [Compound 242, (S)-N-(8,9-Difluoro-6-oxo-1,4,5,6-tetrahydro-2H-pyrano[3,4-c]isoquinolin-1-yl)-N-methyl-5,6,7,8-tetrahydroindolizine-2-carboxamide]: 6.96; `CN(C(=O)c1ccc(Br)c(F)c1F)[C@@H]1COCc2[nH]c(=O)c3cc(F)c(F)cc3c21` [Compound 244, (S)-4-Bromo-N-(8,9-difluoro-6-oxo-1,4,5,6-tetrahydro-2H-pyrano[3,4-c]isoquinolin-1-yl)-2,3-difluoro-N-methylbenzamide]: 7.10; `CN(C(=O)c1cc(F)c(Br)cc1F)[C@@H]1COCc2[nH]c(=O)c3cc(F)c(F)cc3c21` [Compound 245, (S)-4-Bromo-N-(8,9-difluoro-6-oxo-1,4,5,6-tetrahydro-2H-pyrano[3,4-c]isoquinolin-1-yl)-2,5-difluoro-N-methylbenzamide]: 6.77. The result for `CN(C(=O)c1c(F)cc(Br)cc1F)[C@@H]1COCc2[nH]c(=O)c3cc(F)c(F)cc3c21` [Compound 246, (S)-4-Bromo-N-(8,9-difluoro-6-oxo-1,4,5,6-tetrahydro-2H-pyrano[3,4-c]isoquinolin-1-yl)-2,6-difluoro-N-methylbenzamide] reads 5.71.

Regarding `CN(C(=O)c1ccc(C(F)(F)F)c(=O)[nH]1)[C@@H]1COCc2[nH]c(=O)c3cc(F)c(F)cc3c21` [Compound 247, (S)-N-(8,9-Difluoro-6-oxo-1,4,5,6-tetrahydro-2H-pyrano[3,4-c]isoquinolin-1-yl)-N-methyl-6-oxo-5-(trifluoromethyl)-1,6-dihydropyridine-2-carboxamide], the pEC50 is 5.41. In the case of `CN(C(=O)c1ccc2ccccn12)[C@@H]1COCc2[nH]c(=O)c3cc(F)c(F)cc3c21` [Compound 248, (S)-N-(8,9-Difluoro-6-oxo-1,4,5,6-tetrahydro-2H-pyrano[3,4-c]isoquinolin-1-yl)-N-methylindolizine-3-carboxamide], the pEC50 was 5.27.

On to `CN(C(=O)c1ccc(-c2ccc(F)cc2)cc1)[C@@H]1COCc2[nH]c(=O)c3cc(F)c(F)cc3c21` [Compound 250, (S)-N-(8,9-Difluoro-6-oxo-1,4,5,6-tetrahydro-2H-pyrano[3,4-c]isoquinolin-1-yl)-4′-fluoro-N-methyl-[1,1′-biphenyl]-4-carboxamide], for which the pEC50 is 5.09.

As for `CN(C(=O)c1cc2cc(C(F)(F)F)ncc2[nH]1)[C@@H]1COCc2[nH]c(=O)c3cc(F)c(F)cc3c21` [Compound 251, (S)-N-(8,9-difluoro-6-oxo-1,4,5,6-tetrahydro-2H-pyrano[3,4-c]isoquinolin-1-yl)-N-methyl-5-(trifluoromethyl)-1H-pyrrolo[2,3-c]pyridine-2-carboxamide], the pEC50 is 6.64.

In the case of `CN(C(=O)C(F)(F)c1cccc(Br)c1)[C@@H]1COCc2[nH]c(=O)c3cc(F)c(F)cc3c21` [Compound 252, (S)-2-(3-Bromophenyl)-N-(8,9-difluoro-6-oxo-1,4,5,6-tetrahydro-2H-pyrano[3,4-c]isoquinolin-1-yl)-2,2-difluoro-N-methylacetamide], the pEC50 is 5.11. Next, `CN(C(=O)C(F)(F)c1ccc(Br)cc1)[C@@H]1COCc2[nH]c(=O)c3cc(F)c(F)cc3c21` [Compound 253, (S)-2-(4-Bromophenyl)-N-(8,9-difluoro-6-oxo-1,4,5,6-tetrahydro-2H-pyrano[3,4-c]isoquinolin-1-yl)-2,2-difluoro-N-methylacetamide]: 5.10; `CN(C(=O)c1cc2c(C(F)F)c(F)ccc2[nH]1)[C@@H]1COCc2[nH]c(=O)c3cc(F)c(F)cc3c21` [Compound 254, (S)-N-(8,9-Difluoro-6-oxo-1,4,5,6-tetrahydro-2H-pyrano[3,4-c]isoquinolin-1-yl)-4-(difluoromethyl)-5-fluoro-N-methyl-1H-indole-2-carboxamide]: 8.00; `CN(C(=O)c1ccn2ccccc12)[C@@H]1COCc2[nH]c(=O)c3cc(F)c(F)cc3c21` [Compound 261, (S)-N-(8,9-Difluoro-6-oxo-1,4,5,6-tetrahydro-2H-pyrano[3,4-c]isoquinolin-1-yl)-N-methylindolizine-1-carboxamide]: 5.19. The result for `CN(C(=O)c1ccc(-c2ccc(F)cc2)c(F)c1)[C@@H]1COCc2[nH]c(=O)c3cc(F)c(F)cc3c21` [Compound 262, (S)-N-(8,9-Difluoro-6-oxo-1,4,5,6-tetrahydro-2H-pyrano[3,4-c]isoquinolin-1-yl)-2,4′-difluoro-N-methyl-[1,1′-biphenyl]-4-carboxamide] reads 4.76.

On to `CN(C(=O)c1cc(-c2ccc(F)cc2)on1)[C@@H]1COCc2[nH]c(=O)c3cc(F)c(F)cc3c21` [Compound 263, (S)-N-(8,9-Difluoro-6-oxo-1,4,5,6-tetrahydro-2H-pyrano[3,4-c]isoquinolin-1-yl)-5-(4-fluorophenyl)-N-methylisoxazole-3-carboxamide], for which the pEC50 is 4.83. The result for `CN(C(=O)c1cc2cccc(C(F)F)n2c1)[C@@H]1COCc2[nH]c(=O)c3cc(F)c(F)cc3c21` [Compound 266, (S)-N-(8,9-Difluoro-6-oxo-1,4,5,6-tetrahydro-2H-pyrano[3,4-c]isoquinolin-1-yl)-5-(difluoromethyl)-N-methylindolizine-2-carboxamide] reads 7.70.

In the case of `CN(C(=O)c1cc2nc(Br)ccc2[nH]1)[C@@H]1COCc2[nH]c(=O)c3cc(F)c(F)cc3c21` [Compound 268, (S)-5-Bromo-N-(8,9-difluoro-6-oxo-1,4,5,6-tetrahydro-2H-pyrano[3,4-c]isoquinolin-1-yl)-N-methyl-1H-pyrrolo[3,2-b]pyridine-2-carboxamide], the pEC50 is 5.74.
